Experimental data as given in ChEMBL document CHEMBL5728630, “Aryl, heteroaryl, and heterocyclic pharmaceutical compounds for treatment of medical disorders” (2021).

Molecular target: Complement factor D (Homo sapiens, UniProt P00746)
Test: Factor D Assay: Human Factor D (purified from human serum, Complement Technology, Inc.) at 80 nM final concentration is incubated with test compound at various concentrations for 5 min at room temperature in 50 mM Tris, 1M NaCl, pH 7.5. A synthetic substrate Z-L-Lys-SBz and DTNB (Ellman's reagent) are added to final concentrations of 100 μM each. Absorbance at 405 nm (A405) is recorded at 30 second intervals for 30 min using a microplate spectrophotometer. IC50 values are calculated by nonlinear regression of complement Factor D reaction rates as a function of test compound concentration.

Complement factor D, sequence (P00746 whole entry): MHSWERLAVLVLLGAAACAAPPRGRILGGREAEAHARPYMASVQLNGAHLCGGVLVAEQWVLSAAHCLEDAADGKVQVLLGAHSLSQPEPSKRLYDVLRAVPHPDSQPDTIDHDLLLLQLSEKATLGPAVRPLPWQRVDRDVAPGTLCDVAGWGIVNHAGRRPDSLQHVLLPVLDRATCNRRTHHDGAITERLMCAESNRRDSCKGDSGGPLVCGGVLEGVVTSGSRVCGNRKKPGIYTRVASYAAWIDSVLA

SMILES	IC50
CC(=O)c1nn(CC(=O)N2[C@H](C(=O)NCCc3ccccc3)C[C@@]3(C)C[C@@H]23)c2c(C)cc(-c3cnc(C)nc3)cc12	< 1000 nM
Cc1ncc(-c2ccc3c(c2)c(C(=O)NC2CC2)nn3CC(=O)N2[C@H](C(=O)Nc3nc(Br)ccc3C)C[C@@]3(C)C[C@@H]23)cn1	< 1000 nM
Cc1ncc(-c2ccc3c(c2)c(C(=O)NC(C)C2CC2)nn3CC(=O)N2[C@H](C(=O)Nc3nc(Br)ccc3C)C[C@@]3(C)C[C@@H]23)cn1 (some centres not stated)	< 1000 nM
C#CCNC(=O)c1nn(CC(=O)N2[C@H](C(=O)Nc3nc(Br)ccc3C)C[C@@]3(C)C[C@@H]23)c2ccc(-c3cnc(C)nc3)cc12	< 1000 nM
COc1ccc(CNC(=O)[C@@H]2C[C@@]3(C)C[C@H]3N2C(=O)Cn2nc(C(C)=O)c3cc(-c4cnc(C)nc4)cc(C)c32)cc1	< 1000 nM
CC(=O)c1nn(CC(=O)N2[C@H](C(=O)Nc3nc(OC(F)(F)F)ccc3C)C[C@@]3(C)C[C@@H]23)c2c(C)nc(-c3cnc(C)nc3)cc12	< 1000 nM
CC(=O)c1nn(CC(=O)N2[C@H](C(=O)NCCCN)C[C@@]3(C)C[C@@H]23)c2ccc(-c3cnc(C)nc3)cc12	> 10000 nM
CC(=O)c1nn(CC(=O)N2[C@H](C(=O)Nc3nc(Br)ccc3C(O)CO)C[C@@]3(C)C[C@@H]23)c2cnc(-c3cnc(C)nc3)cc12 (some centres not stated)	< 1000 nM
COc1cccc(CNC(=O)[C@@H]2C[C@@]3(C)C[C@H]3N2C(=O)Cn2nc(C(C)=O)c3cc(-c4cnc(C)nc4)cc(C)c32)c1	< 1000 nM
COc1ccccc1CNC(=O)[C@@H]1C[C@@]2(C)C[C@H]2N1C(=O)Cn1nc(C(C)=O)c2cc(-c3cnc(C)nc3)cc(C)c21	< 1000 nM
CC(=O)c1nn(CC(=O)N2[C@H](C(=O)Nc3nc(Br)ccc3C)C[C@@]3(C)C[C@@H]23)c2ccc(-c3cnc(CN4CCCC(F)(F)C4)nc3)cc12	< 1000 nM
CC(=O)c1nn(CC(=O)N2[C@H](C(=O)Nc3nc(Br)ccc3CN3CCC(S(C)(=O)=O)CC3)C[C@@]3(C)C[C@@H]23)c2c(C)cc(-c3cnc(C)nc3)cc12	< 1000 nM
CC(=O)c1nn(CC(=O)N2[C@@H](C(=O)Nc3nc(Br)ccc3C)C[C@@]3(CC(C)C)C[C@@H]23)c2cnc(-c3cnc(C)nc3)cc12	> 10000 nM
CC(=O)c1nn(CC(=O)N2[C@H](C(=O)Nc3nc(Br)ccc3C)C[C@@]3(CN(C)C)C[C@@H]23)c2c(C)nc(-c3cnc(C)nc3)cc12	< 1000 nM
CC(=O)c1nn(CC(=O)N2[C@H](C(=O)Nc3nc(Br)ccc3C)C[C@@]3(CC(F)F)C[C@@H]23)c2cnc(-c3cnc(C)nc3)cc12	< 1000 nM
CC(=O)c1nn(CC(=O)N2[C@H](C(=O)NCCCc3ccccc3)C[C@@]3(C)C[C@@H]23)c2c(C)cc(-c3cnc(C)nc3)cc12	< 1000 nM
Cc1ncc(-c2ccc3c(c2)c(C(=O)NC(C)(C)C)nn3CC(=O)N2[C@H](C(=O)Nc3nc(Br)ccc3C)C[C@@]3(C)C[C@@H]23)cn1	> 10000 nM
C=Cc1nn(CC(=O)N2[C@H](C(=O)Nc3nc(Br)ccc3C)C[C@@]3(C)C[C@@H]23)c2cnc(-c3cnc(C)nc3)cc12	< 1000 nM
Cc1ncc(-c2ccc3c(c2)c(C(=O)NC(C)(C)C2CC2)nn3CC(=O)N2[C@H](C(=O)Nc3nc(Br)ccc3C)C[C@@]3(C)C[C@@H]23)cn1	> 10000 nM
CC(=O)c1nn(CC(=O)N2[C@H](C(=O)Nc3nc(Br)ccc3C)C[C@@]3(CN4CCC4)C[C@@H]23)c2c(C)nc(-c3cnc(C)nc3)cc12	< 1000 nM
CC(=O)c1nn(CC(=O)N2[C@H](C(=O)N[C@@H](C)c3ccccc3)C[C@@]3(C)C[C@@H]23)c2c(C)cc(-c3cnc(C)nc3)cc12	< 1000 nM

SMILES	IC50
CC(=O)c1nn(CC(=O)N2[C@H](C(=O)Nc3cncc(Br)n3)C[C@@]3(C)C[C@@H]23)c2c(C)nc(-c3cnc(C)nc3)cc12	< 1000 nM
CC(=O)C[C@@]12C[C@@H](C(=O)Nc3nc(Br)ccc3C)N(C(=O)Cn3nc(C(C)=O)c4cc(-c5cnc(C)nc5)ncc43)[C@@H]1C2	< 1000 nM
CCCCNC(=O)[C@@H]1C[C@@]2(C)C[C@H]2N1C(=O)Cn1nc(C(C)=O)c2cc(-c3cnc(C)nc3)cc(C)c21	< 1000 nM
CC(=O)c1nn(CC(=O)N2[C@H](C(=O)Nc3nc(Br)ccc3C)C[C@@]3(CNC4=NCCO4)C[C@@H]23)c2cnc(-c3cnc(C)nc3)cc12	< 1000 nM
CCCCCNC(=O)[C@@H]1C[C@@]2(C)C[C@H]2N1C(=O)Cn1nc(C(C)=O)c2cc(-c3cnc(C)nc3)cc(C)c21	< 1000 nM
CC(=O)c1nn(CC(=O)N2[C@H](C(=O)NCc3ccccc3)C[C@@]3(C)C[C@@H]23)c2ccc(-c3cnc(C)nc3)cc12	< 1000 nM
CCCCCCNC(=O)[C@@H]1C[C@@]2(C)C[C@H]2N1C(=O)Cn1nc(C(C)=O)c2cc(-c3cnc(C)nc3)cc(C)c21	< 1000 nM
CC(=O)c1nn(CC(=O)N2[C@H](C(=O)Nc3nc(Br)ccc3C)C[C@@]3(CN4CCCC4)C[C@@H]23)c2c(C)nc(-c3cnc(C)nc3)cc12	< 1000 nM
CC(=O)c1nn(CC(=O)N2[C@H](C(=O)Nc3cc(C)cc(Br)n3)C[C@@]3(C)C[C@@H]23)c2c(C)nc(-c3cnc(C)nc3)cc12	< 1000 nM
CC(=O)c1nn(CC(=O)N2[C@H](C(=O)NCc3ccccc3)C[C@@]3(C)C[C@@H]23)c2c(C)cc(-c3cnc(C)nc3)cc12	< 1000 nM
C=C[C@@]12C[C@@H](C(=O)Nc3nc(Br)ccc3Cc3nnc(CCCC)o3)N(C(=O)Cn3nc(C(C)=O)c4cc(-c5cnc(C)nc5)ncc43)[C@@H]1C2	< 1000 nM
CC(=O)c1nn(CC(=O)N2[C@H](C(=O)NCC(C)C)C[C@@]3(C)C[C@@H]23)c2c(C)cc(-c3cnc(C)nc3)cc12	< 1000 nM
CCCCCNC(=O)[C@@H]1C[C@@]2(C)C[C@H]2N1C(=O)Cn1nc(C(C)=O)c2cc(-c3cnc(C)nc3)ccc21	< 1000 nM
CCCNC(=O)[C@@H]1C[C@@]2(C)C[C@H]2N1C(=O)Cn1nc(C(C)=O)c2cc(-c3cnc(C)nc3)cc(C)c21	< 1000 nM
CC(=O)c1nn(CC(=O)N2[C@H](C(=O)NCc3ccc(F)cc3)C[C@@]3(C)C[C@@H]23)c2c(C)cc(-c3cnc(C)nc3)cc12	< 1000 nM
CC(=O)c1nn(CC(=O)N2[C@H](C(=O)Nc3nc(Br)ccc3C3COC(C)(C)O3)C[C@@]3(C)C[C@@H]23)c2cnc(-c3cnc(C)nc3)cc12 (some centres not stated)	< 1000 nM
Cc1ncc(-c2cc(C)c3c(c2)c(I)nn3CC(=O)N2[C@H](C(=O)Nc3nc(Br)ccc3C)C[C@@]3(C)C[C@@H]23)cn1	< 1000 nM
CC(=O)c1cn(CC(=O)N2[C@H](C(=O)Nc3nc(Br)ccc3C)C[C@@]3(C)C[C@@H]23)c2cnc(-c3cnc(C)nc3)cc12	< 1000 nM
CC(=O)c1nn(CC(=O)N2[C@H](C(=O)Nc3nc(Br)ccc3CN3CCn4c(nnc4C(F)(F)F)C3)C[C@@]3(C)C[C@@H]23)c2cnc(-c3cnc(C)nc3)cc12	< 1000 nM
CC(=O)c1nn(CC(=O)N2[C@H](C(=O)Nc3nc(C(F)(F)F)ccc3C)C[C@@]3(C)C[C@@H]23)c2cnc(-c3cnc(C)nc3)cc12	< 1000 nM
CC(=O)c1nn(CC(=O)N2[C@H](C(=O)Nc3cc(F)cc(Br)n3)C[C@@]3(C)C[C@@H]23)c2c(C)nc(-c3cnc(C)nc3)cc12	< 1000 nM

SMILES	IC50
CC(=O)c1nn(CC(=O)N2[C@H](C(=O)NCc3cccc(F)c3)C[C@@]3(C)C[C@@H]23)c2c(C)cc(-c3cnc(C)nc3)cc12	< 1000 nM
CNC(=O)c1nn(CC(=O)N2[C@H](C(=O)Nc3nc(Br)ccc3C)C[C@@]3(C)C[C@@H]23)c2ccc(-c3cnc(C)nc3)cc12	< 1000 nM
CC(=O)c1nn(CC(=O)N2[C@H](C(=O)NCC3CC3)C[C@@]3(C)C[C@@H]23)c2c(C)cc(-c3cnc(C)nc3)cc12	< 1000 nM
CC(=O)c1nn(CC(=O)N2[C@H](C(=O)Nc3nc(Br)ccc3C3COC(=O)O3)C[C@@]3(C)C[C@@H]23)c2cnc(-c3cnc(C)nc3)cc12 (some centres not stated)	< 1000 nM
C=CCNC(=O)c1nn(CC(=O)N2[C@H](C(=O)Nc3nc(Br)ccc3C)C[C@@]3(C)C[C@@H]23)c2ccc(-c3cnc(C)nc3)cc12	< 1000 nM
C#CC(C)(C)NC(=O)c1nn(CC(=O)N2[C@H](C(=O)Nc3nc(Br)ccc3C)C[C@@]3(C)C[C@@H]23)c2ccc(-c3cnc(C)nc3)cc12	> 10000 nM
CCNC(=O)[C@@H]1C[C@@]2(C)C[C@H]2N1C(=O)Cn1nc(C(C)=O)c2cc(-c3cnc(C)nc3)cc(C)c21	< 1000 nM
CCCNC(=O)[C@@H]1C[C@@]2(C)C[C@H]2N1C(=O)Cn1nc(C(C)=O)c2cc(-c3cnc(C)nc3)ccc21	< 1000 nM
CC(=O)c1nn(CC(=O)N2[C@H](C(=O)Nc3nc(Br)ccc3C)C[C@@]3(CN4CC(C)(C)C4)C[C@@H]23)c2c(C)nc(-c3cnc(C)nc3)cc12	< 1000 nM
CC(=O)c1nn(CC(=O)N2[C@H](C(=O)Nc3nc(Br)ccc3C)C[C@@]3(CC(O)CO)C[C@@H]23)c2cnc(-c3cnc(C)nc3)cc12 (some centres not stated)	< 1000 nM
CC(=O)c1nn(CC(=O)N2[C@H](C(=O)Nc3nc(C(F)(F)F)ccc3C)C[C@@]3(C)C[C@@H]23)c2c(C)nc(-c3cnc(C)nc3)cc12	< 1000 nM
CC(=O)c1nn(CC(=O)N2[C@H](C(=O)Nc3cncc(Br)n3)C[C@@]3(C)C[C@@H]23)c2cnc(-c3cnc(C)nc3)cc12	< 1000 nM
CCC[C@@]12C[C@@H](C(=O)Nc3nc(Br)ccc3C)N(C(=O)Cn3nc(C(C)=O)c4cc(-c5cnc(C)nc5)ncc43)[C@@H]1C2	< 1000 nM
C#CC(C)NC(=O)c1nn(CC(=O)N2[C@H](C(=O)Nc3nc(Br)ccc3C)C[C@@]3(C)C[C@@H]23)c2ccc(-c3cnc(C)nc3)cc12 (some centres not stated)	< 1000 nM
CC(=O)c1nn(CC(=O)N2[C@H](C(=O)NCc3ccccc3F)C[C@@]3(C)C[C@@H]23)c2c(C)cc(-c3cnc(C)nc3)cc12	< 1000 nM
CC(=O)c1nn(CC(=O)N2[C@H](C(=O)Nc3nc(Br)ccc3F)C[C@@]3(C)C[C@@H]23)c2cnc(-c3cnc(C)nc3)cc12	< 1000 nM
Cc1ncc(-c2cc3c(C(C)O)nn(CC(=O)N4[C@H](C(=O)Nc5nc(Br)c(F)cc5C)C[C@@]5(C)C[C@@H]45)c3c(C)n2)cn1 (some centres not stated)	< 1000 nM
CC(=O)c1nn(CC(=O)N2[C@H](C(=O)N[C@H](C)c3ccccc3)C[C@@]3(C)C[C@@H]23)c2c(C)cc(-c3cnc(C)nc3)cc12	< 1000 nM
CC(=O)c1nn(CC(=O)N2[C@H](C(=O)NCC(C)(C)C)C[C@@]3(C)C[C@@H]23)c2ccc(-c3cnc(C)nc3)cc12	< 1000 nM
Cc1ncc(-c2cc(C)c3c(c2)c(C(=O)N2CC4(CCC4)C2)nn3CC(=O)N2[C@H](C(=O)Nc3nc(Br)ccc3C)C[C@@]3(C)C[C@@H]23)cn1	> 10000 nM
